Reference: ChEMBL document CHEMBL5260858, “Targeting mycobacterial membranes and membrane proteins: Progress and limitations” (Bioorg Med Chem, 2023)
≈ marks a conversion by molar mass, not a printed value.

Tested on: Mycobacterium tuberculosis
Assay: Antitubercular activity against Mycobacterium africanum ATCC 25420 assessed as bacterial growth inhibition by agar dilution method
Assay type: functional
Settings: variant africanum ATCC 25420

O=C1CCc2c(cccc2OC[C@]2(O)CCN(c3c(F)cc(Cl)cc3F)C[C@H]2O)N1 showed an MIC of 2 ng/mL (≈ 4.56 nM).
